Source: US11364286B2, “Compositions and methods for the treatment of diseases involving mucin” (priority 2015, dated 2022)
Structures can show the parent of a compound that is named as a salt.

Experiments:
[1] = test system: human gastric cancer cell line KATO-III; test: Cell viability, SRB assay, 3 days, KATO-III; format: cell-based; settings: Cysteamine only
Method: (§1) Mesothelioma (YOU and PET), gastric (KATO-III), Colorectal (LS174T and HT295m21), pancreatic (ASPC-1 and CFPAC) and ovarian (A2780) cell lines were grown in RPMI supplemented with 10% FBS, 100 U/ml penicillin and 100 μg/ml streptomycin. All cells were maintained at 37° C.
(§2) The cytotoxic effects of cysteamine, bromelain and the chemotherapeutic agent cisplatin were assessed. Each agent was administered to the cells either alone or in combination with either or both of the other agents. All cells were treated for 72 hours with the reagents and the cell populations were assessed using the SRB assay. Where possible, IC50 and ICmax were calculated.
Cells were subjected to various treatment regimens as indicated for 3 days before SRB assays were performed. Data are represented as mean±SD (6 replicates for each treatment group).

[2] = test system: human colorectal cancer cell line HT295M12; test: Cell viability, SRB assay, 3 days, HT295M12; format: cell-based; settings: Column B=Cysteamine 1 mg/ml (FIG. 19)
Method: as §1, §2
Data from two independent experiments are represented as mean±SD (6 replicates for each treatment group).

[3] = test system: soft mucin from PMP patients; test: Disintegration of soft PMP mucin (weight of remnant mucin after incubation with the agents); format: biochemical, human; settings: for effect of individual agents on mucin weight over time: Bromelain 300 & 200 μg/ml, NAC 250 mM, Cysteamine 200 mM alone, 0.5-3 h 37°C; for Percentage Disintegration of Mucin Samples: 0 μg/ml BR, negative = gain in weight
Method: Mucin samples from PMP patients were collected and stored under sterile conditions at −80° C. For experiments, the mucin was thawed to room temperature before use. One gram of soft mucin was transferred to a 50 ml centrifuge tube containing 10 ml of either 0.1 M TRIS buffer (pH. 7.0)—controls or similar arrangement containing various concentrations of cysteamine, bromelain or a mixture of the latter two reagents. The concentrations of bromelain investigated ranged from 100-300 μg/ml whilst for cysteamine it was 12.5, 25, 50, 100 and 200 mM. Stock solutions were prepared under sterile conditions in TRIS buffer pH adjusted to 7.0 using 0.1 M Sodium Hydroxide or 0.1 M Hydrochloric acid and the required quantities were added to the respective centrifuge tubes containing the mucin. The tubes were then transferred to a shaking water bath at 37° C. for 2 hours.
At the end of incubation, the remnant mucin was retrieved and weighed. The experiment was carried out using triplicate tubes and readings averaged. All experiments were performed in triplicate.
To a 50 ml centrifuge tube containing 1 g of mucin was added 10 ml of TRIS pH. 7.0 containing 300 μg/ml bromelain+250 mM NAC. Similarly, to 1 g of mucin was added 10 ml of TRIS buffer containing 200 μg/ml bromelain+200 mM cysteamine. For each time interval (0.5, 1.0, 1.5, 2.0, 2.5 and 3.0 h), a total of 6 tubes in triplicate were prepared. The controls contained, TRIS, Bromelain (300 μg/ml & 200 μg/ml), NAC (250 mM) and Cysteamine (200 mM) with mucin (also prepared for each time interval, in triplicates).
The tubes were incubated at 37° C., in a shaker water bath, sample tubes were retrieved at time interval of 0.5 hour and remnant mucin was carefully retrieved and weighed. Percentage weight lost was calculated as follows:
Percentage weight lost (disintegration)=[mucin weight (at 0 hr)−mucin weight (2 or 3 hr)]/mucin weight (at 0 hr).
The experiment was set up as outlined above in Examples 1 and 2 above, however using 10, 20, 40, 60, 80 & 100 μg/ml bromelain with varying concentrations of cysteamine (10, 20, 30, 40 & 50 mM) and the incubation was carried out at 37° C. in a shaker for 3 hours. The controls contained TRIS buffer, 10, 20, 40, 60, 80 & 100 μg/ml bromelain and 10, 20, 30, 40 & 50 mM cysteamine. Each tube was prepared in triplicate and readings averaged.
Experiments were set up as before using 1 g of mucin in a 50 ml centrifuge tube containing either TRIS buffer (pH 7.0), 50 μg/ml bromelain, 50 mM cysteamine or a combination of the last two agents. Six samples from each grades of mucin (soft, semi-hard and hard) were chosen for the experiment and the tubes were incubated in a shaker water bath at 37° C. for duration of 3 hours. The remnant mucin were carefully retrieved and weighed.

[4] = test system: hard mucin from PMP patients; test: Disintegration of hard PMP mucin (weight of remnant mucin); format: biochemical, human; settings: 50 mM cysteamine, alone or with 50 μg/ml bromelain; 37°C, 3 hours
YOU mesothelioma cells = test: Cell viability, SRB assay, 72 h, YOU cells; format: cell-based; settings: Cysteamine single agent
Method: (§3) 5000 cells of each cell line were plated in 96 well plates and grown for 48 hrs at 37° C. in humidified CO2 incubator. After this the medium was replaced with drugs, bromelain, cysteamine and cisplatin in alone or in various combinations. Control wells had medium only. Plates were further incubated for 72 hrs. At the end of incubation proliferation was determined by SRB assay. […]
(§4) 6. The plate was read in a microplate reader (PowerWaveX, BIO-TEK instruments, Inc, USA) with the working wavelength 570 nm. […]
(§5) The cytotoxic effects of cysteamine, bromelain and the chemotherapeutic agent cisplatin were assessed. […] All cells were treated for 72 hours with the reagents and the cell populations were assessed using the SRB assay. Where possible, IC50 and ICmax were calculated.
(§6) Using Chou and Tallarida Method (Tallarida R J. The interaction index: a measure of drug synergism. Pain 2002; 98: 163-168), the Interaction index (γ) was evaluated for a combination of 2 and 3 drugs (γ=1 (additive) (ADD); γ=<1 (synergistic) (SYN) and γ=>1 (sub-additive) (SUB)).

[5] = test system: HT29 colorectal cancer cells; test: Proliferation, SRB assay, 72 hour culture, HT29; format: cell-based; settings: individually or in combination
Method: (§7) 5000 cells of each cell line were plated in 96 well plates and grown for 48 hrs at 37° C. in humidified CO2 incubator. After this the medium was replaced with drugs, bromelain, cysteamine and cisplatin in alone or in various combinations. Control wells had medium only. Plates were further incubated for 72 hrs. At the end of incubation proliferation was determined by SRB assay.
(§8) Materials and Method: • 0.4% (w/v) SRB: 1.0 g SRB— Sulforhodamine B sodium salt—(#S1402, SIGMA) in 250 ml of 1% acetic acid (stored at room temperature) • 10% (w/v) TCA: 50 g of Trichloroacetic acid (#T9159, SIGMA) in 500 ml of Milli-Q water (stored at 4° c.) • 10 mM Tris Base: 0.6055 g Tris (Trizma® base, #T6066, SIGMA) in 500 ml of Milli-Q water (stored at 4° c.) • 1% acetic acid: 10 ml of acetic acid in 1000 ml of Milli-Q water.
(§9) 1. After an incubation period of 72 hours, the old medium was discarded and cells were fixed with 200 μl of 10% (w/v) ice-cold TCA (trichloroacetic acid) for 30 minutes at 4° C.
(§10) 2. The plate was washed in distilled water 5 times.
(§11) 3. 100 μl of 0.4% (w/v) sulphorhodamine (SRB) solution was added to each well of the dry 96-well plates and they were allowed staining at room temperature for 10 mins.
4. […]
as §4

[6] = test system: MKN45 gastric cancer cells; test: Proliferation, SRB assay, 72 hour culture, MKN45; format: cell-based, human; settings: combination at the highest concentrations tested
Method: as §7, §8, §9, §10, §11
4. […]
as §4

PET mesothelioma cells = test: Cell viability, SRB assay, 72 h, PET cells; format: cell-based; settings: Cysteamine single agent
Method: as §3, §4, §5, §6

[7] = test system: human ovarian cancer cell line A2780; test: Cell viability, SRB assay, 3 days, A2780; format: cell-based; design: unit not given here; settings: A2780, 3 days
Method: as §2, with “All cells were maintained at 37° C. The” for “The”, “calculated. […] Cells were subjected to various treatment regimens as indicated for 3 days before SRB assays were performed.” for “calculated.”

[8] = FIG. 22A, 0.25 mg/ml, lowest of 0.25-1 mg/ml
[9] = FIG. 22A, 1 mg/ml, highest of 0.25-1 mg/ml
[10] = FIG. 22A, middle concentration of 0.25-1 mg/ml, value not given
[11] = FIG. 22B, 0.25 mg/ml, lowest of 0.25-1 mg/ml
[12] = FIG. 22B, 1 mg/ml, highest of 0.25-1 mg/ml
[13] = FIG. 22B, middle concentration of 0.25-1 mg/ml, value not given
[14] = FIG. 22C, 0.25 mg/ml, lowest of 0.25-1 mg/ml
[15] = FIG. 22C, 1 mg/ml, highest of 0.25-1 mg/ml
[16] = FIG. 22C, middle concentration of 0.25-1 mg/ml, value not given

SMILES	effect of individual agents on mucin weight over time [3]	Mean Diff. (Holm-Sidak's multiple comparisons test), control vs. treatment [7, 8]	Mean Diff. (Holm-Sidak's multiple comparisons test), control vs. treatment [7, 9]	Mean Diff. (Holm-Sidak's multiple comparisons test), control vs. treatment [7, 10]	Mean Diff. (Holm-Sidak's multiple comparisons test), control vs. treatment [7, 11]	Mean Diff. (Holm-Sidak's multiple comparisons test), control vs. treatment [7, 12]	Mean Diff. (Holm-Sidak's multiple comparisons test), control vs. treatment [7, 13]	Mean Diff. (Holm-Sidak's multiple comparisons test), control vs. treatment [7, 14]	Mean Diff. (Holm-Sidak's multiple comparisons test), control vs. treatment [7, 15]	Mean Diff. (Holm-Sidak's multiple comparisons test), control vs. treatment [7, 16]	also measured
NCCS [Cysteamine, cysteamine]	only showed hydration initially, with subsequent slight disintegration and hydration	40.75	87.12	61.62	30.75	81.49	53.01	55.93	88.77	70.70	Mean Diff., Column A (control) vs. Column B ([1]; 0.3 mg/ml (FIG. 20B, Table 14B)): −1.313; Mean Diff., Column A (control) vs. Column B ([1]; 0.5 mg/ml (FIG. 20A, Table 14A)): 21.10; Mean Diff., Column A (control) vs. Column B ([1]; 0.5 mg/ml (FIG. 20C, Table 14C)): 49.64; Mean Diff., Column A (control) vs. Column B [2]: 9.610; effect of single agents on mucin weight ([3]; Bromelain 100, 200, 300 μg/ml or Cysteamine 12.5-200 mM as single agents, 2 h 37°C): only showed the mucin gaining weight, indicating hydration; Percentage Disintegration of Mucin Samples ([3]; CIS 12.5 mM, 2 h 37°C): −117%; Percentage Disintegration of Mucin Samples ([3]; CIS 25 mM, 2 h 37°C): −115%; Percentage Disintegration of Mucin Samples ([3]; CIS 50 mM, 2 h 37°C): −100%; Percentage Disintegration of Mucin Samples ([3]; CIS 100 mM, 2 h 37°C): −111%; Percentage Disintegration of Mucin Samples ([3]; CIS 200 mM, 2 h 37°C): −86%; hydration of hard mucin [4]: dramatic percentage of hydration; IC50 (as Cysteamine) (YOU mesothelioma cells): 0.56 mg/mL; ICmax (YOU mesothelioma cells; at 11.3 mg/ml cysteamine): 94% at 11.3 mg/ml; inhibition of growth [5]: no or little effect; effect on in vitro growth [6]: no or little effect; IC50 (as Cysteamine) (PET mesothelioma cells): 0.781 mg/mL; ICmax (PET mesothelioma cells; at 11.3 mg/ml cysteamine): 85% at 11.3 mg/ml
N[C@@H](CCC(=O)N[C@@H](CS)C(=O)NCC(=O)O)C(=O)O [L-Glutathione reduced]								25.68	32.71	19.54	
NCCS [Cysteamine dihydrochloride]		55.20	94.04	74.31							
N[C@@H](CS)C(=O)O [L-Cysteine]					10.30	51.11	25.30				
CC(=O)N[C@@H](CS)C(=O)O [NAC, N-acetyl cysteine]	only showed hydration initially, with subsequent slight disintegration and hydration	20.45	23.92	18.80	15.35	17.73	9.290	25.62	30.51	18.03	
